Data on two molecules can be found in patent publication US5436269A, “Method for treating hepatitis” (Sagami Chemical Research Center, priority 1991, dated 1995).

In general, LD50 refers to the dose expected to kill half of the subjects tested.

Some results are limits rather than exact numbers.

The nature of one data set: in vivo. Also on record: species or system ddy-N mice. The note with it: mouse. The procedure:
Acute toxicity of ethyl docosahexaenoate was tested.
Tested animal: ddy-N mice, 5-week age, 5 male and 5 female
All tested mice were anatomically evaluated after the test.

The test system of the next data set is fulminant hepatitis. Briefly: Survival of model rats with induced fulminant hepatitis (D-galactosamine hydrochloride and lipopolysaccharide). Format: in vivo, Wister rats.

Experimental for fulminant hepatitis: Male Wister rats of 200 g weight were processed to be model animals for inducing hepatitis. Namely, 1500 mg/kg-weight of D-galactosamine hydrochloride was intestinally administrated and, at the same time, 10 μg of lipopolysaccharide derived from E. coli 0111:B4 was injected intravenously.

`CC/C=C\C/C=C\C/C=C\C/C=C\C/C=C\C/C=C\CCC(=O)OCC` [ethyl docosahexaenoate] registered an LD50 in “in vivo” of over 2000 mg/kg. In addition, the rats survived in the data set with fulminant hepatitis (emulsion of ethyl ester of 99% pure DHA, same experiment as Example 2, control rats died within 24 hours) turned out to be 75%.
`CC/C=C\C/C=C\C/C=C\C/C=C\C/C=C\C/C=C\CCC(=O)OCC(COC(=O)CC/C=C\C/C=C\C/C=C\C/C=C\C/C=C\C/C=C\CC)OC(=O)CC/C=C\C/C=C\C/C=C\C/C=C\C/C=C\C/C=C\CC` [DHA triglyceride]: the “model rats survived more than 24 hours” value in the data set with fulminant hepatitis (emulsion containing 10% of 99% pure DHA triglyceride, simultaneous with hepatitis inducer) is on record as 67%. Besides, in the data set with fulminant hepatitis (model rats, result in words), the induction of hepatitis entry is “inhibits the induction of hepatitis”.
